Results: the C3SDB collision cross section collection
One block for each compound: values may come before it.

Tests used:
[1] = instrument: DT, stepped-field
[2] = instrument: DT, single field, calibrated with Agilent tune mix (Agilent)

SMILES: Oc1ccc(O)cc1 [Hydroquinone]
- collision cross section (N2) ([1]; [M+H]+): 128.79 Å²

SMILES: Cc1cn([C@H]2C[C@H](O)[C@@H](COP(=O)(O)O)O2)c(=O)[nH]c1=O [Thymidine 5'-Monophosphate]
- collision cross section (N2) ([1]; [M+H]+): 163.84 Å²
- collision cross section (N2) ([1]; [M+Na]+): 169.74 Å²

SMILES: CCCCC/C=C\C[C@H](O)/C=C/C=C\C/C=C\CCCC(=O)O [12S-HETE]
- collision cross section (N2) ([1]; [M+Na]+): 193.33 Å²

SMILES: CCCCC/C=C\C/C=C\C/C=C\C/C=C\CCCCCC(=O)O[C@H](CO/C=C\CCCCCCCCCCCCCCCC)COP(=O)([O-])OCC[N+](C)(C)C [PC(p40:4)]
- collision cross section (N2) ([2]; [M+H]+): 300.9 Å²

SMILES: CCCCC/C=C\C/C=C\C/C=C\CCCCCCC(=O)O[C@H](COC(=O)CCCC/C=C\C/C=C\C/C=C\CCCCC)COC(=O)CCCCCCCCC/C=C\CCCCCCCCCC [TG(60:7)]
- collision cross section (N2) ([2]; [M+NH4]+): 339 Å²

SMILES: CC/C=C\C/C=C\C/C=C\C/C=C\C/C=C\C/C=C\CCC(=O)OC[C@@H](COC(=O)CCCCCCC/C=C\C/C=C\C/C=C\CC)OC(=O)CCCCCCCC/C=C\C/C=C\C/C=C\CCCCC [TG(62:12)]
- collision cross section (N2) ([2]; [M+NH4]+): 337.5 Å²

SMILES: CCCCCCCCCCCCCCCC(=O)N[C@@H](COP(=O)([O-])OCC[N+](C)(C)C)[C@H](O)CCCCCCCCCCCCCCC [SM(34:0)]
- collision cross section (N2) ([2]; [M+HCOO]-): 282.3 Å²
- collision cross section (N2) ([2]; [M+H]+): 285 Å²
- collision cross section (N2) ([2]; [M+Na]+): 284.8 Å²

SMILES: CCCCC/C=C\C/C=C\C/C=C\CCCCCCC(=O)OC[C@@H](O)COP(=O)(O)OC[C@H](N)C(=O)O [LPS(20:3)]
- collision cross section (N2) ([2]; [M-H]-): 221.5 Å²

SMILES: CCCCCCCCCCCCC=CC[C@@H](O)[C@H](CO)NC(=O)CCCCCCCCCCCCCCCCCCCCCCCC [Cer(43:1)]
- collision cross section (N2) ([2]; [M+H]+): 282 Å²

SMILES: CCCCCCCCCCCCCCCCC(=O)OC[C@@H](O)COP(=O)(O)OCCN [LPE(17:0)]
- collision cross section (N2) ([2]; [M+H]+): 217.1 Å²
- collision cross section (N2) ([2]; [M-H]-): 210.1 Å²

SMILES: CCCCCCCCCCCCCCCCCC(=O)N[C@@H](CO)[C@H](O)CCCCCCCCCCCCCCC [Cer(36:0)]
- collision cross section (N2) ([2]; [M+HCOO]-): 259 Å²
- collision cross section (N2) ([2]; [M+H]+): 262 Å²
- collision cross section (N2) ([2]; [M+Na]+): 267.7 Å²
- collision cross section (N2) ([2]; [M-H]-): 249 Å²

SMILES: CCCCCCCCCCCCCCCCCCCC(=O)N[C@@H](CO)[C@H](O)CCCCCCCCCCCCCCC [Cer(38:0)]
- collision cross section (N2) ([2]; [M+HCOO]-): 265.2 Å²
- collision cross section (N2) ([2]; [M+H]+): 267.9 Å²

SMILES: CC/C=C\C/C=C\C/C=C\C/C=C\C/C=C\CCCC(=O)O[C@H](COC(=O)CCCCCCC/C=C\C/C=C\C/C=C\CC)COC(=O)CCCCCCCCC/C=C\CCCCCCCCCC [TG(60:9)]
- collision cross section (N2) ([2]; [M+NH4]+): 336 Å²

Next, values leading:

- collision cross section (N2) ([2]; [M+HCOO]-): 258.9 Å²
- collision cross section (N2) ([2]; [M+H]+): 263.4 Å²
- collision cross section (N2) ([2]; [M+Na]+): 269.8 Å²
SMILES: CCCCCCCCCCCCC=CC[C@@H](O)[C@H](CO)NC(=O)CCCCCCCCCCCCCCCCCC [Cer(37:1)]

- collision cross section (N2) ([2]; [M+H]+): 270.3 Å²
- collision cross section (N2) ([2]; [M+Na]+): 271.4 Å²
- collision cross section (N2) ([2]; [M-H]-): 259.8 Å²
SMILES: CCCCCCCCCCCCC=CC[C@@H](O)[C@H](CO)NC(=O)CC=CCCCCCCCCCCCCCCCCCC [Cer(40:2)]

- collision cross section (N2) ([2]; [M+NH4]+): 324.6 Å²
SMILES: CCCCC/C=C\C/C=C\C/C=C\C/C=C\CCCCCC(=O)OC[C@@H](COC(=O)CCCCCCCCCCCCCCC)OC(=O)CCCCCCC/C=C\CCCCCCC [TG(55:5)]

- collision cross section (N2) ([2]; [M+NH4]+): 271.6 Å²
SMILES: CCCCCCCC/C=C\CCCCCCCCCC(=O)O[C@@H](CO)COC(=O)CCCCCCC/C=C\CCCCCCCC [DG(38:2)]

- collision cross section (N2) ([2]; [M+NH4]+): 277.7 Å²
SMILES: CCCCC/C=C\C/C=C\CCCCCCCCCC(=O)O[C@@H](CO)COC(=O)CCCCCCCCCCCCCCCCCCC [DG(40:2)]

- collision cross section (N2) ([2]; [M+H]+): 281.6 Å²
- collision cross section (N2) ([2]; [M-H]-): 268.4 Å²
SMILES: CCCCCCCCCCCCCCCC/C=C\OC[C@H](COP(=O)(O)OCCN)OC(=O)CCCCCCCCCCCCCCCCC [PE(p36:0)]

- collision cross section (N2) ([2]; [M+H]+): 280 Å²
- collision cross section (N2) ([2]; [M-H]-): 273.1 Å²
SMILES: CCCCCCCC/C=C\CCCCCCCCCC(=O)O[C@H](COC(=O)CCCCCCCCCCCCC)COP(=O)(O)OC[C@H](N)C(=O)O [PS(34:1)]

- collision cross section (N2) ([2]; [M+H]+): 231.8 Å²
SMILES: CCCCCCCC/C=C\CCCCCCCCCC(=O)OC[C@@H](O)COP(=O)(O)OC[C@H](N)C(=O)O [LPS(20:1)]

- collision cross section (N2) ([2]; [M+H]+): 274.6 Å²
SMILES: CCCCCCCCCCCCCC/C=C\OC[C@H](COP(=O)(O)OCCN)OC(=O)CCCCCCCCCCCCCCCCC [PE(p34:0)]

- collision cross section (N2) ([2]; [M+H]+): 262.4 Å²
- collision cross section (N2) ([2]; [M+Na]+): 262.1 Å²
SMILES: CCCCCCCCCCCCC=CC[C@@H](O)[C@H](CO)NC(=O)CC=CCCCCCCCCCCCCCCCC [Cer(38:2)]

- collision cross section (N2) ([2]; [M+H]+): 279.2 Å²
SMILES: CCCCCCCCCCCCC=CC[C@@H](O)[C@H](COP(=O)([O-])OCC[N+](C)(C)C)NC(=O)CCCCCCCCCCCCCC [SM(33:1)]
